Results as given in patent US5705356A, “Reagent for invitro diagnostic determination of bicarbonate” (Trace Scientific Limited, priority 1993, dated 1998).

Key:
[1] = biological target: T1, Glycerol Dehydrogenase (GLY.DH) (Geobacillus stearothermophilus, UniProt P32816); assay: Relative activity of substrates with glycerol dehydrogenase (vs glycerol); format: biochemical; conditions: relative to glycerol (100%)
T1 sequence (P32816 1-370): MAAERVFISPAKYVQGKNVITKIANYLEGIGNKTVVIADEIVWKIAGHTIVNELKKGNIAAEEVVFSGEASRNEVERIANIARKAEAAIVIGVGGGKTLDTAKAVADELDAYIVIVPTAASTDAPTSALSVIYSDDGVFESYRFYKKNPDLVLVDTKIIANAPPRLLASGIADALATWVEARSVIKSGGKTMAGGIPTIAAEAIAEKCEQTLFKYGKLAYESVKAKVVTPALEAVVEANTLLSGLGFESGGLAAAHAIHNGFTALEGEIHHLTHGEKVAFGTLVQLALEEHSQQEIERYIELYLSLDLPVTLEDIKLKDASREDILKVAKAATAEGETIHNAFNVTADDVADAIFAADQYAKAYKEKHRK
Text: Alternatively, using Glycerol Dehydrogenase (GLY.DH) as the enzyme, suitable substrates in the reaction [drawing 8] and their activity relative to glycerol (100%) are

G-6-P-DH = biological target: T2, G-6-P-DH (Saccharomyces cerevisiae, UniProt P11412); assay: Relative reactivity of substrates with G-6-P-DH, NADP as coenzyme (vs G-6-P); format: biochemical, Yeast; conditions: relative to G-6-P-DH/G-6-P pair
T2 sequence (P11412 1-505): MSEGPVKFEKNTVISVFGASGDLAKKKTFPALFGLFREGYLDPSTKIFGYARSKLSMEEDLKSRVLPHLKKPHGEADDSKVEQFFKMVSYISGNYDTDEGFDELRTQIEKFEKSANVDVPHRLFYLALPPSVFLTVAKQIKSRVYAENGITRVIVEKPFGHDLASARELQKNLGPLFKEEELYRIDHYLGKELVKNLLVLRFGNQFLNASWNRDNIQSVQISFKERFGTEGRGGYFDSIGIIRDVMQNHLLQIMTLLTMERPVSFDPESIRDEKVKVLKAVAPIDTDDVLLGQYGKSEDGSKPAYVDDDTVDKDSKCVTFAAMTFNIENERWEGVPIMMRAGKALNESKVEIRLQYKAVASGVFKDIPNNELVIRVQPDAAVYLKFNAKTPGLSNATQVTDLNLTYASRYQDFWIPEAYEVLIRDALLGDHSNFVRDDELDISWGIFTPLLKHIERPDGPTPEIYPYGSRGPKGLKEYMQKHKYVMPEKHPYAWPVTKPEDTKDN

[2] = tested on: Glucose Dehydrogenase (GLD); assay: Relative activity of substrates with glucose dehydrogenase (vs D-glucose); format: biochemical; conditions: rate of reaction relative to D-glucose (100%), NAD coenzyme
Text: If glucose dehydrogenase is used as the enzyme, preferred substrates for reduction of the NAD coenzyme and their relative degree of cross reactivity when compared to D-Glucose are:

[3] = biological target: T3, Leucine Dehydrogenase (L.D) (Bacillus cereus, UniProt P0A393); assay: Relative activity of substrates with leucine dehydrogenase (vs L-leucine); format: biochemical; conditions: relative to L-leucine (100%)
T3 sequence (P0A393 1-366): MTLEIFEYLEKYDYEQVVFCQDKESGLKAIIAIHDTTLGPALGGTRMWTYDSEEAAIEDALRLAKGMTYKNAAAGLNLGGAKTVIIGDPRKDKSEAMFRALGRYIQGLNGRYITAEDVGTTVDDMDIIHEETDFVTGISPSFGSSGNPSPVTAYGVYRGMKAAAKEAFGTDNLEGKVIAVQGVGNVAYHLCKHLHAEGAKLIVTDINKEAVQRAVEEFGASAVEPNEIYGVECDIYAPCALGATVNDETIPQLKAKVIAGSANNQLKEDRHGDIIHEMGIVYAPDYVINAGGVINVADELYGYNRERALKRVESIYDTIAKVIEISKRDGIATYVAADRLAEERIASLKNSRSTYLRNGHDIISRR
Text: Wherein Leucine Dehydrogenase (L.D) is used as the enzyme according to the reaction [drawing 9] suitable substrates and their activity relative to L-leucine (100%) are

[4] = biological target: T4, L-Alanine Dehydrogenase (A.D) (Lysinibacillus sphaericus, UniProt P17556); assay: Relative activity of substrate with L-alanine dehydrogenase (vs L-alanine); format: biochemical; conditions: relative to L-alanine (100%)
T4 sequence (P17556 1-372): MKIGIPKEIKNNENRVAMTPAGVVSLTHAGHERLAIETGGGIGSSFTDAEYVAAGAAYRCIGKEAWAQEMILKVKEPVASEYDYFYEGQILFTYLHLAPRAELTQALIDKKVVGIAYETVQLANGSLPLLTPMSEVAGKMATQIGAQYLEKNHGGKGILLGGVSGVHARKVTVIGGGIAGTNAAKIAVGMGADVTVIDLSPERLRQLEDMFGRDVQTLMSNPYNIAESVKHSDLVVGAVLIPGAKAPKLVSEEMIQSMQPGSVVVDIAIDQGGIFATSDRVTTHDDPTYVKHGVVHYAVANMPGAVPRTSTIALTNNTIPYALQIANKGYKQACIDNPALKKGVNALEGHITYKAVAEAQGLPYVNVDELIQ
Text: If L-Alanine Dehydrogenase (A.D) is used as the enzyme in a reaction system similar to that used for Leucine Dehydrogenase, a suitable substrate and its activity relative to L-alanine (100%) is […]

[5] = biological target: T5, 3α-Hydroxysteroid Dehydrogenase (H.DH) (Comamonas testosteroni, UniProt P80702); assay: Relative activity of substrates with 3α-hydroxysteroid dehydrogenase (vs cholic acid); format: biochemical; conditions: relative to Cholic Acid
T5 sequence (P80702 1-257): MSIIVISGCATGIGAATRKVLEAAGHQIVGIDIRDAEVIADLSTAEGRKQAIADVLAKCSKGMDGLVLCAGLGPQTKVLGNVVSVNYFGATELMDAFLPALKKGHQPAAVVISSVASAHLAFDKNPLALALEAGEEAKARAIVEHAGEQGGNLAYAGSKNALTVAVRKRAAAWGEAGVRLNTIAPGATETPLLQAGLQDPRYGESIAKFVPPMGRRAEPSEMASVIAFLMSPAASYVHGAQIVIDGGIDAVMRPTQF
Text: Their activities relative to Cholic Acid are also listed.

[6] = tested on: L-Lactate Dehydrogenase (LDH); assay: Relative activity of substrates with L-lactate dehydrogenase (vs L-lactate); format: biochemical, Lactobacillus sp.; conditions: relative to L-Lactate
Text: Wherein, L-Lactate Dehydrogenase (LDH) from Lactobacillus sp. is used as the enzyme in the following reaction, [drawing 10] suitable substrates and their activity relative to L-Lactate are:

Molecule: CC(O)C(C)O (centres unmarked) [2,3-Butanediol]
- Relative Activity [1]: 52.6%

Molecule: O=P(O)(O)OC[C@H]1OC(O)C[C@@H](O)[C@@H]1O (some centres unmarked) [2-deoxyglucose-6-P]
- relative reactivity (G-6-P-DH): 18%

Molecule: OC[C@H]1O[C@@H](O)[C@H](O)[C@@H](O)[C@@H]1O [D-Glucose]
- Relative Activity [2]: 100%

Molecule: O=C(CO)[C@@H](O)[C@H](O)[C@H](O)CO [D-fructose]
- Relative Activity [2]: 0.8%

Molecule: OC[C@H]1OC(O)[C@H](O)[C@@H](O)[C@H]1O (stereo partly drawn) [D-galactose]
- Relative Activity [2]: 0.1%

Molecule: OC[C@H]1O[C@@H](O[C@H]2[C@H](O)[C@@H](O)C(O)O[C@@H]2CO)[C@H](O)[C@@H](O)[C@H]1O (stereo partly drawn) [D-lactose]
- Relative Activity [2]: 1.2%

Molecule: OC[C@H]1OC(O)[C@@H](O)[C@@H](O)[C@@H]1O (stereo partly drawn) [D-mannose]
- Relative Activity [2]: 2.4%

Molecule: OC[C@@H](O)[C@@H](O)[C@H](O)[C@@H](O)CO [D-sorbitol]
- Relative Activity [2]: 0.1%

Molecule: OCCO [Ethylene glycol]
- Relative Activity [1]: 7.8%

Molecule: OCC(O)CCl (stereo not drawn) [Glycerol-α-monochlorohydrin]
- Relative Activity [1]: 48.5%

Molecule: N[C@@H](CS)C(=O)O [L-Cysteine]
- Relative Activity [3]: 0.3%

Molecule: CC[C@H](C)[C@H](N)C(=O)O [L-Isoleucine]
- Relative Activity [3]: 58%

Molecule: CSCC[C@H](N)C(=O)O [L-Methionine]
- Relative Activity [3]: 0.6%

Molecule: CCCC[C@H](N)C(=O)O [L-Norleucine]
- Relative Activity [3]: 10%

Molecule: CCC[C@H](N)C(=O)O [L-Norvaline]
- Relative Activity [3]: 41%

Molecule: CC(C)[C@H](N)C(=O)O [L-Valine]
- Relative Activity [3]: 74%

Molecule: C[C@H](N)C(=O)O [L-alanine]
- Relative Activity [4]: 100%

Molecule: CC(C)C[C@H](N)C(=O)O [L-leucine]
- Relative Activity [3]: 100%

Molecule: N[C@@H](CO)C(=O)O [L-serine]
- Relative Activity [4]: 5%

Molecule: O=C(CO)[C@@H](O)[C@H](O)[C@@H](O)CO [L-sorbose]
- Relative Activity [2]: 0.3%

Molecule: C[C@H](CCC(=O)O)[C@H]1CC[C@H]2[C@@H]3CC[C@@H]4C[C@H](O)CC[C@]4(C)[C@H]3CC[C@]12C [Lithocholic Acid]
- Relative Activity [5]: 96%

Molecule: O=C(O)CC(=O)C(=O)O [Oxoloacetate]
- Relative Activity [6]: 36%

Molecule: O=P(O)(O)OC[C@H]1OC(O)[C@H](O)[C@@H](O)[C@H]1O (some centres unmarked) [galactose-6-P]
- relative reactivity (G-6-P-DH): 25%

Molecule: N[C@H]1C(O)O[C@H](COP(=O)(O)O)[C@@H](O)[C@@H]1O (some centres unmarked) [glucosamine-6-P]
- relative reactivity (G-6-P-DH): 2%

Molecule: OCC(O)CO [glycerol]
- Relative Activity [1]: 100%

Molecule: O[C@H]1[C@H](O)[C@@H](O)[C@H](O)[C@@H](O)[C@H]1O [inositol]
- Relative Activity [2]: 0.2%

Molecule: OC[C@H]1O[C@H](O[C@H]2[C@H](O)[C@@H](O)[C@H](O)O[C@@H]2CO)[C@H](O)[C@@H](O)[C@@H]1O [maltose]
- Relative Activity [2]: 3.9%

Molecule: Etiocholic Acid
- Relative Activity [5]: 60%

Molecule: xylose
- Relative Activity [2]: 8.9%
